The results in this text go back to US20230276831A1, “Food/Beverage Article” (Kikkoman Corporation, priority 2020, published 2023).

Bounds are passed on as bounds.

This experiment concerns Lactobacillus fructivores (NBRC 13954). The experiment is described as follows: Antimicrobial action of oxygen-containing heterocyclic compounds in soy sauce (Test Example 7). Format: cell-based. To be noted: NBRC13954, 168 h, salt 4% (w/v), alcohol 5% (v/v). As to the method: Commercially available whole soybean soy sauce (produced by Kikkoman Corporation) was electrodialyzed and then concentrated under reduced pressure to produce soy sauce at a salt concentration of 0% (w/v) and an alcohol concentration of 0% (v/v). Then, salt and/or alcohol was added to the above-mentioned obtained soy sauce, and the mixture was then heat-treated to produce soy sauce at a salt concentration of 4% (w/v) and an alcohol concentration of 5% (v/v).
The test substance described in Table 21 was added to the soy sauce produced in Test Example 6 to concentrations of 0.1 ppm, 0.5 ppm, 1 ppm, 5 ppm, 25 ppm, and 50 ppm. Lactic acid bacteria (Lactobacillus fructivores (NBRC 13954)) were then added to 10^4 to 10^5 cells/mL and cultured at 30° C. for 7 days. After the culture, the number of lactic acid bacteria was measured using Difco Lactobacilli MRS Agar. Soy sauce to which the test substance was not added was used as a control group, and the antimicrobial activity was evaluated in comparison with the number of lactic acid bacteria in the control group. The evaluation was performed using the following criterion.
• A: The bacterial count decreases to less than 10% of the bacterial count of a control group. • B: The bacterial count decreases to 10% or more and less than 50% of the bacterial count of the control group. • C: The bacterial count decreases to 50% or more and less than 100% of the bacterial count of the control group. • D: The bacterial count is the same as the bacterial count of the control group.

For the compound `COc1c(CC=C(C)C)c(O)cc2c1C[C@H](c1ccc(O)c(CC=C(C)C)c1O)CO2` [Licoricidin, 4-[(R)-7-hydroxy-5-methoxy-6-(3-methyl-2-butenyl)chroman-3-yl]-2-(3-methyl-2-butenyl)-1,3-benzenediol], under “test substance 0.1 ppm”, the activity at 0.1 ppm lay in the range of 10 to 50%. Further, the activity at 0.5 ppm (test substance 0.5 ppm) is 10 to 50%. Under “test substance 1 ppm”, the activity at 1 ppm lay within 10 to 50%. Moreover, the activity at 5 ppm (test substance 5 ppm) fell in the range of 10 to 50%. Besides, for the setting “test substance 25 ppm”, the activity at 25 ppm is less than 10%. For the same compound, for the setting “test substance 50 ppm”, the activity at 50 ppm is less than 10%.
